Experimental data published in PubChem BioAssay (NCI).
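How tested: cells in 96-well plates exposed to compound for 48 hours at five concentrations. TGI is the concentration that stops growth completely.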

What was measured:
Assay in all cases: inhibition of tumour cell growth, NCI panel, 48 h
[1] = system: RXF-631 renal
[2] = system: OVCAR-4 ovarian
[3] = system: HCT-15 colon
[4] = system: CCRF-CEM leukemia
[5] = system: CAKI-1 renal
[6] = system: HT29 colon
[7] = system: KM20L2 colon
[8] = system: A549 NSCLC
[9] = system: ACHN renal
[10] = system: OVCAR-3 ovarian
[11] = system: SK-OV-3 ovarian
[12] = system: LXFL 529 NSCLC
[13] = system: M19-MEL melanoma
[14] = system: HL-60(TB) leukemia
[15] = system: HCC-2998 colon
[16] = system: MOLT-4 leukemia
[17] = system: HOP-62 NSCLC
[18] = system: SK-MEL-2 melanoma
[19] = system: NCI-H23 lung
[20] = system: U251 CNS
[21] = system: NCI-H460 lung
[22] = system: OVCAR-5 ovarian
[23] = system: SF-295 CNS
[24] = system: HOP-92 NSCLC
[25] = system: SNB-78 CNS
[26] = system: EKVX NSCLC
[27] = system: TK-10 renal
[28] = system: HCT-116 colon
[29] = system: MALME-3M melanoma
[30] = system: DMS 273 small cell lung
[31] = system: 786-0 renal
[32] = system: K-562 leukemia
[33] = system: SW-620 colon
[34] = system: OVCAR-8 ovarian
[35] = system: SR leukemia
[36] = system: LOX IMVI melanoma
[37] = system: UACC-62 melanoma
[38] = system: DLD-1 colon
[39] = system: SNB-75 CNS
[40] = system: XF 498 CNS
[41] = system: SN12C renal
[42] = system: COLO 205 colon
[43] = system: UO-31 renal
[44] = system: RPMI-8226 leukemia
[45] = system: IGROV1 ovarian
[46] = system: UACC-257 melanoma
[47] = system: NCI-H226 lung
[48] = system: A498 renal
[49] = system: SF-268 CNS
[50] = system: SNB-19 CNS
[51] = system: SK-MEL-28 melanoma
[52] = system: SK-MEL-5 melanoma
[53] = system: KM12 colon
[54] = system: SF-539 CNS
[55] = system: M14 melanoma
[56] = system: RXF 393 renal
[57] = system: DU-145 prostate
[58] = system: NCI/ADR-RES ovarian
[59] = system: MCF7 breast
[60] = system: PC-3 prostate
[61] = system: HOP-18 NSCLC
[62] = system: HS 578T breast
[63] = system: NCI-H522 lung
[64] = system: T-47D breast
[65] = system: MDA-N
[66] = system: MDA-MB-231 breast
[67] = system: BT-549 breast
[68] = system: MDA-MB-435
[69] = system: DMS 114 small cell lung

With COc1cc([C@@H]2c3cc4c(cc3[C@@H](NC(=O)c3cccc(N)c3)C3COC(=O)[C@@H]32)OCO4)cc(OC)c1O (stereo partly drawn) the TGI [1] was 18.5 µM, the TGI [2] was > 66.9 µM and the TGI [3] was 19.7 µM. The TGI [4] was > 33 µM, the TGI [5] was 6.18 µM and the TGI [6] was 21.3 µM. For the same molecule, the TGI [7] was 36 µM, the TGI [8] was 2.55 µM and the TGI [9] was 2.4 µM. For the same molecule, the TGI [10] was 30.2 µM, the TGI [11] was > 22.9 µM and the TGI [12] was > 100 µM. The TGI [13] was > 100 µM, the TGI [14] was 2.11 µM and the TGI [15] was 7.23 µM. The TGI [16] was 2.33 µM, the TGI [17] was 0.0964 µM and the TGI [18] was 10.1 µM. It also gave a TGI [19] of 2.22 µM, a TGI [20] of 4.51 µM and a TGI [21] of 1.97 µM. It also gave a TGI [22] of 12.8 µM, a TGI [23] of 5.13 µM and a TGI [24] of 15.9 µM. The TGI [25] was > 84.4 µM, the TGI [26] was 15.6 µM and the TGI [27] was 18.4 µM. The TGI [28] was > 42.4 µM, the TGI [29] was 8.87 µM and the TGI [30] was 12.1 µM. The TGI [31] was 2.3 µM, the TGI [32] was > 49.3 µM and the TGI [33] was 35 µM. The TGI [34] was 14.8 µM, the TGI [35] was 0.321 µM and the TGI [36] was 12.7 µM. The TGI [37] was 7.94 µM, the TGI [38] was > 67.2 µM and the TGI [39] was 11.6 µM. For the same molecule, the TGI [40] was 25 µM, the TGI [41] was 3.78 µM and the TGI [42] was > 100 µM. The TGI [43] was 26.1 µM, the TGI [44] was 18.1 µM and the TGI [45] was > 41.6 µM. The TGI [46] was > 100 µM, the TGI [47] was 1.62 µM and the TGI [48] was 8.08 µM. For the same molecule, the TGI [49] was 13.9 µM, the TGI [50] was 31.6 µM and the TGI [51] was > 88.5 µM. The TGI [52] was 6.16 µM, the TGI [53] was 15 µM and the TGI [54] was 1.53 µM. For the same molecule, the TGI [55] was > 20.4 µM and the TGI [56] was 23.5 µM.

CC1OC(=O)C2CC3CCCCC3C(/C=C/C3CCCC(C)N3C)C12 (stereo not drawn) was tested, and the TGI [2] was > 100 µM, the TGI [3] was > 100 µM and the TGI [4] was > 100 µM. For the same molecule, the TGI [5] was > 100 µM, the TGI [6] was > 100 µM and the TGI [7] was > 100 µM. The TGI [8] was > 100 µM, the TGI [9] was > 100 µM and the TGI [57] was > 100 µM. For the same molecule, the TGI [10] was > 100 µM, the TGI [11] was > 100 µM and the TGI [12] was > 100 µM. The TGI [58] was > 100 µM, the TGI [13] was > 100 µM and the TGI [14] was > 100 µM. The TGI [15] was > 100 µM, the TGI [16] was > 100 µM and the TGI [17] was > 100 µM. For the same molecule, the TGI [18] was > 100 µM, the TGI [19] was > 100 µM and the TGI [20] was > 100 µM. For the same molecule, the TGI [21] was > 100 µM, the TGI [22] was > 100 µM and the TGI [23] was > 68.1 µM. The TGI [24] was > 100 µM, the TGI [59] was > 100 µM and the TGI [25] was > 52.8 µM. For the same molecule, the TGI [60] was > 100 µM, the TGI [26] was > 100 µM and the TGI [27] was > 100 µM. For the same molecule, the TGI [28] was > 100 µM, the TGI [29] was > 100 µM and the TGI [30] was > 100 µM. For the same molecule, the TGI [61] was > 100 µM, the TGI [62] was > 100 µM and the TGI [31] was > 100 µM. For the same molecule, the TGI [32] was > 100 µM, the TGI [33] was > 100 µM and the TGI [63] was > 100 µM. For the same molecule, the TGI [34] was > 100 µM, the TGI [64] was > 100 µM and the TGI [35] was > 100 µM. For the same molecule, the TGI [36] was > 100 µM, the TGI [65] was > 100 µM and the TGI [66] was > 100 µM. The TGI [37] was > 100 µM, the TGI [38] was > 100 µM and the TGI [39] was > 100 µM. For the same molecule, the TGI [67] was > 100 µM, the TGI [40] was > 100 µM and the TGI [41] was > 100 µM. For the same molecule, the TGI [42] was > 100 µM, the TGI [68] was > 100 µM and the TGI [43] was > 100 µM. The TGI [44] was > 100 µM, the TGI [45] was > 100 µM and the TGI [46] was > 100 µM. For the same molecule, the TGI [47] was > 100 µM, the TGI [48] was > 100 µM and the TGI [69] was > 100 µM. For the same molecule, the TGI [49] was > 100 µM, the TGI [50] was > 100 µM and the TGI [51] was > 100 µM. For the same molecule, the TGI [52] was > 100 µM, the TGI [53] was > 100 µM and the TGI [54] was > 100 µM. The TGI [55] was > 100 µM and the TGI [56] was > 100 µM.

Cc1cc(C)nc(NS(=O)(=O)c2ccc(NC(=O)c3cccc4c(Nc5ccc(S(=O)(=O)N=C(N)N)cc5)c5ccc(Cl)cc5nc34)cc2)n1 was tested, and the TGI [1] was > 100 µM, the TGI [3] was > 100 µM and the TGI [4] was > 100 µM. For the same molecule, the TGI [6] was > 100 µM, the TGI [7] was > 100 µM and the TGI [9] was > 100 µM. For the same molecule, the TGI [10] was 52.2 µM, the TGI [11] was > 100 µM and the TGI [12] was > 100 µM. The TGI [13] was > 100 µM, the TGI [15] was 43.5 µM and the TGI [16] was 60.8 µM. For the same molecule, the TGI [17] was > 100 µM, the TGI [19] was > 100 µM and the TGI [20] was 31.4 µM. The TGI [21] was > 100 µM, the TGI [22] was > 100 µM and the TGI [23] was 53 µM. For the same molecule, the TGI [25] was > 100 µM, the TGI [26] was > 100 µM and the TGI [27] was > 100 µM. The TGI [28] was 35.4 µM, the TGI [29] was > 100 µM and the TGI [31] was 32.2 µM. The TGI [32] was > 100 µM, the TGI [63] was 39.8 µM and the TGI [34] was > 100 µM. For the same molecule, the TGI [35] was 80.5 µM, the TGI [36] was 43.3 µM and the TGI [37] was > 100 µM. For the same molecule, the TGI [38] was 43.2 µM, the TGI [39] was > 100 µM and the TGI [40] was > 100 µM. The TGI [41] was > 100 µM, the TGI [43] was > 100 µM and the TGI [44] was 63 µM. For the same molecule, the TGI [46] was 59.9 µM, the TGI [48] was > 100 µM and the TGI [69] was > 100 µM. The TGI [49] was > 100 µM, the TGI [50] was 53.3 µM and the TGI [51] was > 100 µM. For the same molecule, the TGI [53] was > 100 µM, the TGI [54] was 73.7 µM and the TGI [55] was > 100 µM. It also gave a TGI [56] of 36.5 µM.

O=C(CC1(O)C(=O)Nc2ccc([N+](=O)[O-])cc21)c1ccc2ccccc2c1 (stereo not drawn) was tested, and the TGI [1] was > 100 µM, the TGI [2] was > 100 µM and the TGI [3] was > 100 µM. The TGI [4] was > 100 µM, the TGI [6] was > 100 µM and the TGI [7] was > 100 µM. For the same molecule, the TGI [8] was > 100 µM, the TGI [9] was > 100 µM and the TGI [10] was > 100 µM. The TGI [11] was > 100 µM, the TGI [12] was > 100 µM and the TGI [13] was > 100 µM. For the same molecule, the TGI [14] was > 100 µM, the TGI [15] was > 100 µM and the TGI [16] was > 100 µM. The TGI [17] was > 100 µM, the TGI [18] was > 100 µM and the TGI [19] was > 100 µM. For the same molecule, the TGI [20] was > 100 µM, the TGI [21] was > 100 µM and the TGI [22] was > 100 µM. The TGI [23] was > 100 µM, the TGI [25] was > 100 µM and the TGI [26] was > 100 µM. For the same molecule, the TGI [27] was > 100 µM, the TGI [28] was > 100 µM and the TGI [29] was > 100 µM. For the same molecule, the TGI [30] was > 100 µM, the TGI [31] was > 100 µM and the TGI [32] was > 100 µM. For the same molecule, the TGI [33] was > 100 µM, the TGI [63] was > 100 µM and the TGI [34] was > 100 µM. For the same molecule, the TGI [35] was > 100 µM, the TGI [37] was > 100 µM and the TGI [38] was > 100 µM. The TGI [39] was > 100 µM, the TGI [41] was > 100 µM and the TGI [42] was > 100 µM. For the same molecule, the TGI [43] was > 100 µM, the TGI [44] was > 100 µM and the TGI [45] was > 100 µM. For the same molecule, the TGI [46] was > 100 µM, the TGI [47] was > 100 µM and the TGI [48] was > 100 µM. The TGI [69] was > 100 µM, the TGI [49] was > 100 µM and the TGI [50] was > 100 µM. The TGI [51] was > 100 µM, the TGI [53] was > 100 µM and the TGI [54] was > 100 µM. For the same molecule, the TGI [55] was > 100 µM and the TGI [56] was > 100 µM.
